Assay results reported in patent US20170071235A1 (priority 2014, published 2017).

Tests used:
[1] = test system: IL-1β secretion produced by PMA-differentiated macrophages; assay type: cell-based, human
[2] = test system: TNF-α secretion produced by PMA-differentiated macrophages; assay type: cell-based, human
[3] = thiol group; cited from earlier work

## CC1=C[C@H]2O[C@@H]3[C@H](O)C[C@](C)([C@@]2(CO)[C@H](O)C1=O)[C@]31CO1 [DON, deoxynivalenol]
THP-1 monocytes
  effect on proliferation of THP-1 monocytes: decreased the proliferation
[1]
  IL-1β response: did not show an IL-1β response
  release of IL-1β: increased the release of IL-1β
[2]
  TNF-α secretion: increase in TNF-α

## C=C1[C@@H]2O[C@@H]3C=C(C)C(=O)[C@@H](O)[C@]3(CO)[C@@]1(C)C[C@H]2O [deepoxy-DON]
THP-1 monocytes
  effect on proliferation of THP-1 monocytes: did not
[1]
  release of IL-1β: did not

## OCCS [mercaptoethanol, 2-mercaptoethanol]
[3]
  pKa: ~9.6
